Measured values from patent US20210386791A1, “METHODS OF CELLULAR REPROGRAMMING” (TissueTech, Inc., priority 2018, published 2021).

Tests used:
Type in all cases: cell-based
[1] = test system: human corneal fibroblasts (HCF); test: Timing course analysis of SDF1/CXCR4 and BMP signaling in HCF; settings: time course
[2] = test system: human corneal fibroblasts (HCF); test: Reversal of HCF to keratocytes on immobilized HC-HA/PTX3 with or without SB431542 or AMD3100; settings: day 1 up to 7 days
Protocol: A total of 86 human corneas from individuals aged 18-76 years and maintained at 4° C. in Optisol (Chiron Vision, Irvine, Calif.) for less than 7 days after death were obtained from the Florida Lions Eye Bank (Miami, Fla.) and handled according to the declaration of Helsinki. HCF were isolated and cultured. Briefly, the sheets of the epithelium and the endothelium were removed from corneas, the stroma sections were cut into cubes of approximately 1 mm3, incubated in 2 mg/ml collagenase for 16 h at 37° C., and then placed in a culture medium consisting of DMEM supplemented with 10% fetal bovine serum containing […]. The culture medium was refreshed twice a week. The cells cultured to passage 3 were used for all experiments. To reverse fibroblasts or myofibroblasts into keratocytes, fibroblasts or myofibroblasts were cultured on immobilized HC-HA/PTX3 in DMEM+10% FBS for 3 days using the samples from the cells on plastic and HA as the controls. Some of the cell cultures were extended to up to 7 days of culture to monitor the expression of α-SMA formation. Total RNAs were extracted using RNeasy Mini Kit (Qiagen) and reverse-transcribed using High Capacity Reverse Transcription Kit (Applied Biosystems). cDNA was amplified by real-time RT-PCR using specific primer-probe mixtures and DNA polymerase in Quant Studio 5 Real-time PCR System (Applied Biosystems). Real-time RT-PCR profile consisted of 10 min of initial activation at 95° C., followed by 40 cycles of 15 s denaturation at 95° C., and 1 min annealing and extension at 60° C. The genuine identity of each PCR product was confirmed by the size determination using 2% agarose gels followed by ethidium bromide staining together with PCR marker according to EC3 Imaging System (BioImaging System, Upland, Calif.). The samples of human corneal fibroblasts, myofibroblasts and corneal keratocytes were air-dried and fixed in 4% formaldehyde, pH 7.0, for 15 min at room temperature, rehydrated in PBS, incubated with 0.2% Triton X-100 for 15 min, and rinsed 3 times with PBS for 5 min each. […] After three washes with PBS, they were incubated with corresponding Alexa-Fluor-conjugated secondary IgG (all 1:100 dilution) for 60 min. The samples were then counterstained with Hoechst 33342 and analyzed in Zeiss LSM 700 confocal microscope (Thornhood, N.Y.). Corresponding mouse and rabbit sera were used as negative controls for primary monoclonal and polyclonal antibodies, respectively. Cell lysates were prepared in RIPA buffer and resolved on 4-15% (w/v) gradient acrylamide gels under denaturing and reducing conditions for Western blotting. The protein extracts were transferred to the nitrocellulose membrane, which was then blocked with 5% (w/v) fat-free milk in TBST [50 mM Tris-HCl, pH 7.5, 150 mM NaCl, 0.05% (v/v) Tween-20], followed by sequential incubation with the specific primary antibody against keratocan and its respective horseradish peroxidase (HRP)-conjugated secondary antibody using β-actin as the loading control. Immunoreactive proteins were detected with Western Lighting Chemiluminescence (PerkinElmer, Waltham, Mass.).

[3] = test system: human corneal myofibroblasts; test: Reversal of TGFβ1-induced human corneal myofibroblasts on immobilized HC-HA/PTX3; settings: day 4 and day 7
Protocol: HCF were cultured in DMEM+10% FBS until 70% confluence. The cells were serum-starved for 1 day and treated with 10 ng/ml TGFβ1 for 3 days to induce myofibroblasts.
To reverse fibroblasts or myofibroblasts into keratocytes, fibroblasts or myofibroblasts were cultured on immobilized HC-HA/PTX3 in DMEM+10% FBS for 3 days using the samples from the cells on plastic and HA as the controls. Some of the cell cultures were extended to up to 7 days of culture to monitor the expression of α-SMA formation. […]
The samples of human corneal fibroblasts, myofibroblasts and corneal keratocytes were air-dried and fixed in 4% formaldehyde, pH 7.0, for 15 min at room temperature, rehydrated in PBS, incubated with 0.2% Triton X-100 for 15 min, and rinsed 3 times with PBS for 5 min each. […] The samples were then counterstained with Hoechst 33342 and analyzed in Zeiss LSM 700 confocal microscope (Thornhood, N.Y.). […]
Cell lysates were prepared in RIPA buffer and resolved on 4-15% (w/v) gradient acrylamide gels under denaturing and reducing conditions for Western blotting. […] Immunoreactive proteins were detected with Western Lighting Chemiluminescence (PerkinElmer, Waltham, Mass.).

hyaluronic acid [HA] was tested, and the “time of promoted CXCR4 mRNA expression” value [1] was “not HA”, the “time to aggregation in HCF” value [1] was “not HA” and the “aggregation of HCF” value [2] was “formed some aggregates”. The “staining of α-SMA” value [3] was “retained their characteristic staining of α-SMA”.
